Results reported in ChEMBL document CHEMBL1148677, “Identification of small-molecule inhibitors of the Abeta-ABAD interaction” (Bioorg Med Chem Lett, 2006).
The source made the active and inactive calls. No cut-off for these calls is given here.

How the values were obtained:
[1] = Inhibition of beta amyloid-ABAD interaction by ELISA; set-up: species or system Homo sapiens
Homo sapiens = species: Homo sapiens; assay: Inhibition of beta amyloid-ABAD interaction by ELISA at 1 mM
[2] = Partition coefficient, log P of the compound; format: physicochemical; details: octanol/water

| Structure (SMILES) | IC50 [1] [µM] | inhibition (Homo sapiens) [%] | Activity (Homo sapiens) | logP [2] |
| --- | --- | --- | --- | --- |
| Cc1ccc2c(c1)sc(-c1ccc(N(C)C)cc1)[n+]2C | 230 | – | – | – |
| CCOc1ccc2nc(NC(=O)c3ccccc3)sc2c1 | – | < 50 | – | – |
| O=C(Nc1nc2ccc(Cl)cc2s1)c1cccc(O)c1O | – | < 50 | – | – |
| O=C(Nc1cccnc1)Nc1nc2ccc(OC(F)(F)F)cc2s1 | 244 | – | Active | – |
| COC(=O)c1cc(NC(=O)Nc2nc3ccc(OC(F)(F)F)cc3s2)ccc1O | 244 | – | Active | – |
| COc1cccc(C(=O)Nc2nc3ccc(Cl)cc3s2)c1OC | – | < 50 | – | – |
| O=C(Nc1cccnc1)Nc1nc2ccc(Cl)cc2s1 | 247 | – | Active | – |
| COc1ccc2nc(NC(=O)Nc3ccccc3)sc2c1 [FRENTIZOLE] | 200 | – | – | – |
| COC(=O)c1cc(NC(=O)Nc2nc3ccc(Cl)cc3s2)ccc1O | 6.46 | – | Active | 1.34 |
| COc1ccc2nc(NC(=O)c3ccccc3)sc2c1 | – | < 50 | – | – |
| COC(=O)c1cc(C(=O)O)ccc1NC(=O)Nc1nc2ccc(Cl)cc2s1 | 22.7 | – | Active | – |
| O=C(Nc1nc2ccc(F)cc2s1)Nc1ccccc1O | 207 | – | Active | – |
| O=C(Nc1cc(O)c2cc(S(=O)(=O)O)ccc2c1)Nc1nc2ccc(Cl)cc2s1 | 267 | – | Active | – |
| O=C(Nc1nc2ccc(F)cc2s1)c1cccc(O)c1O | – | < 50 | – | – |
| O=C(Nc1ccc(O)cc1)Nc1nc2ccc(OC(F)(F)F)cc2s1 | 47.6 | – | Active | – |
| COc1ccc2nc(NC(=O)Nc3ccc(O)c(C(=O)O)c3)sc2c1 | 29.5 | – | Active | – |
| COC(=O)c1cc(NC(=S)Nc2nc3ccc(OC)cc3s2)ccc1O | 15.6 | – | – | – |
| O=C(Nc1nc2ccc(OC(F)(F)F)cc2s1)Nc1ccc(O)cc1O | 53.8 | – | Active | – |
| CCOc1ccc2nc(NC(=O)Nc3ccc(O)c(C(=O)OC)c3)sc2c1 | 20.6 | – | Active | – |
| O=C(Nc1cccnc1)Nc1nc2ccc(F)cc2s1 | 282 | – | Active | – |

| Structure (SMILES) | IC50 [1] [µM] | inhibition (Homo sapiens) [%] | Activity (Homo sapiens) | logP [2] |
| --- | --- | --- | --- | --- |
| CCOc1ccc2nc(NC(=O)c3cccc(OC)c3OC)sc2c1 | – | < 50 | – | – |
| O=C(Nc1nc2ccc(O)cc2s1)c1cccc(O)c1O | – | < 50 | – | – |
| COC(=O)c1cc(NC(=O)Nc2nc3ccc(F)cc3s2)ccc1O | 6.56 | – | Active | 1.15 |
| O=C(Nc1nc2ccc(Cl)cc2s1)Nc1ccc(O)cc1O | 23 | – | Active | – |
| COc1ccc2nc(NC(=S)Nc3ccccc3)sc2c1 | 190 | – | – | – |
| COc1cccc(C(=O)Nc2nc3ccc(F)cc3s2)c1OC | – | < 50 | – | – |
| O=C(Nc1ccc(O)c(C(=O)O)c1)Nc1nc2ccc(F)cc2s1 | 261 | – | Active | – |
| COc1ccc2nc(NC(=O)c3cccc(OC)c3OC)sc2c1 | – | < 50 | – | – |
| COc1ccc2nc(NC(=O)Nc3ccc(N4CCOCC4)cc3)sc2c1 | 250 | – | Active | – |
| O=C(Nc1nc2ccc(Cl)cc2s1)c1ccccc1 | – | < 50 | – | – |
| COc1ccc2nc(NC(=O)N3CCN(c4ccc5c(c4)OCO5)CC3)sc2c1 | 163 | – | – | – |
| COc1ccc2nc(NC(=O)NCc3ccc4c(c3)OCO4)sc2c1 | 26.6 | – | Active | – |
| COC(=O)c1ccc(NC(=O)Nc2nc3ccc(F)cc3s2)c(I)c1 | 286 | – | Active | – |
| O=C(Nc1ccc(O)c(C(=O)O)c1)Nc1nc2ccc(OC(F)(F)F)cc2s1 | 185 | – | Active | – |
| O=C(Nc1ccc(C(=O)O)c(O)c1)Nc1nc2ccc(Cl)cc2s1 | 267 | – | Active | – |
| O=C(Nc1nc2ccc(F)cc2s1)c1ccccc1 | – | < 50 | – | – |
| COc1ccc2nc(NC(=O)Nc3cccnc3)sc2c1 | 257 | – | Active | – |
| COc1ccc2nc(NC(=O)NOc3ccccc3)sc2c1 | 316 | – | Active | – |
| COC(=O)c1cc(NC(=O)Nc2nc3ccc(OC)cc3s2)ccc1O | 26.3 | – | Active | – |
| O=C(Nc1cc(O)c2cc(S(=O)(=O)O)ccc2c1)Nc1nc2ccc(OC(F)(F)F)cc2s1 | 29 | – | Active | – |
